Data published in patent publication US7192906B2, “Substituted pyrazole derivatives, production process thereof, and herbicide compositions containing the derivatives” (SDS Biotech K.K., priority 2001, dated 2007).

How the values were obtained:
Type in all cases: in vivo
[1] = tested on: Chenopodium album; assay: Test Example 1 upland field foliage treatment; details: Table 4, upland field foliage treatment, index 0-5
Procedure, shortened: (§1)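 Scored 0–5 (0: under 10%, 5: 90% or more effect or phytotoxicity) on day 21 after treatment; plants sown in upland soil received a leaf-surface spray 14 days post-sowing of diluted wettable powder delivering 1 kg active ingredient/ha.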

[2] = tested on: Digitaria adscendens; assay: Test Example 1 upland field foliage treatment; details: Table 4, upland field foliage treatment, index 0-5
Procedure, shortened: as §1

[3] = tested on: Setaria viridis; assay: Test Example 1 upland field foliage treatment; details: Table 4, upland field foliage treatment, index 0-5
Procedure, shortened: as §1

[4] = tested on: Stellaria media; assay: Test Example 1 upland field foliage treatment; details: Table 4, upland field foliage treatment, index 0-5
Procedure, shortened: as §1

[5] = tested on: soybean (Glycine max); assay: Test Example 1 upland field foliage treatment, crop phytotoxicity; details: Table 4, upland field foliage treatment, index 0-5
Procedure, shortened: as §1

[6] = tested on: wheat (Triticum aestivum); assay: as above; details: Table 4, upland field foliage treatment, index 0-5
Procedure, shortened: as §1

[7] = tested on: Chenopodium album; assay: Test Example 2 upland soil treatment; details: Table 5, upland soil treatment, index 0-5
Procedure, shortened: (§2)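 Pre-emergence soil treatment: seeds sown in upland soil in pots and covered with about 1 cm soil. Next day, a water-diluted wettable powder was sprayed evenly on the soil surface at 1 kg active ingredient per hectare. Weed control or crop injury was scored 0–5 (10% to ≥90% bands) 21 days later.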

[8] = tested on: Digitaria adscendens; assay: Test Example 2 upland soil treatment; details: Table 5, upland soil treatment, index 0-5
Procedure, shortened: as §2

[9] = tested on: Setaria viridis; assay: Test Example 2 upland soil treatment; details: Table 5, upland soil treatment, index 0-5
Procedure, shortened: as §2

[10] = tested on: Stellaria media; assay: Test Example 2 upland soil treatment; details: Table 5, upland soil treatment, index 0-5
Procedure, shortened: as §2

[11] = tested on: soybean (Glycine max); assay: Test Example 2 upland soil treatment, crop phytotoxicity; details: Table 5, upland soil treatment, index 0-5
Procedure, shortened: as §2

[12] = tested on: wheat (Triticum aestivum); assay: as above; details: Table 5, upland soil treatment, index 0-5
Procedure, shortened: as §2

[13] = tested on: Ammannia multiflora; assay: Test Example 3 paddy field treatment; details: paddy field treatment, wettable powder, active ingredient 1 kg per hectare, 21st day after the dropping, index 0-5
Procedure, shortened: (§3)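 Scoring used a 0–5 scale of herbicidal effect or phytotoxicity, from <10% to ≥90%, taken 21 days after treatment. Treatment was 1 kg a.i./ha as diluted wettable powder dripped onto 4 cm-deep flooded pots sown with the weeds, 10 days after transplanting two-leaf Koshihikari rice.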

[14] = tested on: Echinochloa crusgalli; assay: Test Example 3 paddy field treatment; details: paddy field treatment, wettable powder, active ingredient 1 kg per hectare, 21st day after the dropping, index 0-5
Procedure, shortened: as §3

[15] = tested on: Monochoria vaginalis; assay: Test Example 3 paddy field treatment; details: paddy field treatment, wettable powder, active ingredient 1 kg per hectare, 21st day after the dropping, index 0-5
Procedure, shortened: as §3

[16] = tested on: Scirpus juncoides; assay: Test Example 3 paddy field treatment; details: paddy field treatment, wettable powder, active ingredient 1 kg per hectare, 21st day after the dropping, index 0-5
Procedure, shortened: as §3

[17] = tested on: Rice (Oryza sativa); assay: Test Example 3 paddy field treatment, crop phytotoxicity; details: paddy field treatment, transplanted rice Koshihikari, wettable powder, active ingredient 1 kg per hectare, 21st day after the dropping, index 0-5
Procedure, shortened: as §3

SMILES	Herbicidal activity CA: Chenopodium album [1]	Herbicidal activity DA: Digitaria adscendens [2]	Herbicidal activity SV: Setaria viridis [3]	Herbicidal activity SM: Stellaria media [4]	Herbicidal activity (phytotoxicity) GM: Soybean (Glycine max) [5]	Herbicidal activity (phytotoxicity) TA: Wheat (Triticum aestivum) [6]	Herbicidal activity CA: Chenopodium album [7]	Herbicidal activity DA: Digitaria adscendens [8]	Herbicidal activity SV: Setaria viridis [9]	Herbicidal activity SM: Stellaria media [10]	Herbicidal activity (phytotoxicity) GM: Soybean (Glycine max) [11]	Herbicidal activity (phytotoxicity) TA: Wheat (Triticum aestivum) [12]	Herbicidal activity AM [13]	Herbicidal activity EC [14]	Herbicidal activity MV [15]	Herbicidal activity SJ [16]	Herbicidal activity OS (phytotoxicity to rice) [17]
CNC(=O)C(Cn1cc(C)c(-c2ccccc2)n1)=NOC [Compound 18]	5 (herbicidal effect of not less than 90%, or phytotoxicity of 90% or more)	5 (herbicidal effect of not less than 90%, or phytotoxicity of 90% or more)	5 (herbicidal effect of not less than 90%, or phytotoxicity of 90% or more)	5 (herbicidal effect of not less than 90%, or phytotoxicity of 90% or more)	0 (herbicidal effect of not less than 0% and less than 10%, or phytotoxicity of 0% or more and less than 10%)	0 (herbicidal effect of not less than 0% and less than 10%, or phytotoxicity of 0% or more and less than 10%)	5 (herbicidal effect of not less than 90%, or phytotoxicity of 90% or more)	5 (herbicidal effect of not less than 90%, or phytotoxicity of 90% or more)	5 (herbicidal effect of not less than 90%, or phytotoxicity of 90% or more)	5 (herbicidal effect of not less than 90%, or phytotoxicity of 90% or more)	0 (herbicidal effect of not less than 0% and less than 10%, or phytotoxicity of 0% or more and less than 10%)	0 (herbicidal effect of not less than 0% and less than 10%, or phytotoxicity of 0% or more and less than 10%)	5 (herbicidal effect of not less than 90%, or phytotoxicity of 90% or more)	5 (herbicidal effect of not less than 90%, or phytotoxicity of 90% or more)	5 (herbicidal effect of not less than 90%, or phytotoxicity of 90% or more)	5 (herbicidal effect of not less than 90%, or phytotoxicity of 90% or more)	0 (herbicidal effect of not less than 0% and less than 10%, or phytotoxicity of 0% or more and less than 10%)
CCNC(=O)C(Cn1cc(C)c(-c2ccccc2)n1)=NOC [Compound 19]	5 (herbicidal effect of not less than 90%, or phytotoxicity of 90% or more)	5 (herbicidal effect of not less than 90%, or phytotoxicity of 90% or more)	5 (herbicidal effect of not less than 90%, or phytotoxicity of 90% or more)	5 (herbicidal effect of not less than 90%, or phytotoxicity of 90% or more)	0 (herbicidal effect of not less than 0% and less than 10%, or phytotoxicity of 0% or more and less than 10%)	0 (herbicidal effect of not less than 0% and less than 10%, or phytotoxicity of 0% or more and less than 10%)	5 (herbicidal effect of not less than 90%, or phytotoxicity of 90% or more)	5 (herbicidal effect of not less than 90%, or phytotoxicity of 90% or more)	5 (herbicidal effect of not less than 90%, or phytotoxicity of 90% or more)	5 (herbicidal effect of not less than 90%, or phytotoxicity of 90% or more)	0 (herbicidal effect of not less than 0% and less than 10%, or phytotoxicity of 0% or more and less than 10%)	0 (herbicidal effect of not less than 0% and less than 10%, or phytotoxicity of 0% or more and less than 10%)	5 (herbicidal effect of not less than 90%, or phytotoxicity of 90% or more)	5 (herbicidal effect of not less than 90%, or phytotoxicity of 90% or more)	5 (herbicidal effect of not less than 90%, or phytotoxicity of 90% or more)	5 (herbicidal effect of not less than 90%, or phytotoxicity of 90% or more)	0 (herbicidal effect of not less than 0% and less than 10%, or phytotoxicity of 0% or more and less than 10%)
CON=C(Cn1cc(C)c(-c2ccccc2)n1)C(=O)NC(C)C [Compound 20]	5 (herbicidal effect of not less than 90%, or phytotoxicity of 90% or more)	3 (herbicidal effect of not less than 50% and less than 70%, or phytotoxicity of 50% or more and less than 70%)	2 (herbicidal effect of not less than 30% and less than 50%, or phytotoxicity of 30% or more and less than 50%)	5 (herbicidal effect of not less than 90%, or phytotoxicity of 90% or more)	0 (herbicidal effect of not less than 0% and less than 10%, or phytotoxicity of 0% or more and less than 10%)	0 (herbicidal effect of not less than 0% and less than 10%, or phytotoxicity of 0% or more and less than 10%)	3 (herbicidal effect of not less than 50% and less than 70%, or phytotoxicity of 50% or more and less than 70%)	4 (herbicidal effect of not less than 70% and less than 90%, or phytotoxicity of 70% or more and less than 90%)	3 (herbicidal effect of not less than 50% and less than 70%, or phytotoxicity of 50% or more and less than 70%)	4 (herbicidal effect of not less than 70% and less than 90%, or phytotoxicity of 70% or more and less than 90%)	0 (herbicidal effect of not less than 0% and less than 10%, or phytotoxicity of 0% or more and less than 10%)	0 (herbicidal effect of not less than 0% and less than 10%, or phytotoxicity of 0% or more and less than 10%)	4 (herbicidal effect of not less than 70% and less than 90%, or phytotoxicity of 70% or more and less than 90%)	5 (herbicidal effect of not less than 90%, or phytotoxicity of 90% or more)	5 (herbicidal effect of not less than 90%, or phytotoxicity of 90% or more)	4 (herbicidal effect of not less than 70% and less than 90%, or phytotoxicity of 70% or more and less than 90%)	0 (herbicidal effect of not less than 0% and less than 10%, or phytotoxicity of 0% or more and less than 10%)
